Source: patent US20150004636A1, “NEURONAL BIOSENSOR FOR DETECTION OF TOXINS” (priority 2011, published 2015)
Where two headings read alike, the source gives them in different places.

Legend:
Format in all cases: cell-based, chick
[1] = system: DRG neurons
Protocol: For microscopy experiments, holes were drilled in the bottom of 35 mm tissue culture dishes with a 7/32″ drill bit and drill press. Etching was performed on 12 mm round glass coverslips that were submerged in 300 ml of boiling 18 MΩ H2O containing 7.5 g Alconox detergent for 30 minutes. The coverslips were then rinsed with 18MΩ H2O and dried in a 150 mm Petri dish in a laminar flow hood. A section of Tygon tubing (0.5 inch long, 0.5 inch inner diameter, and 0.75 inch outer diameter) was used to apply Dow Corning 732 multi-purpose sealant to the bottom of the tissue culture dishes just around the hole that was drilled previously. Forceps were used to press one round glass coverslip to the bottom of each tissue culture dish until a continuous seal was formed around the hole. The tissue culture dishes were laid in a fume hood to dry. Exposure to ultraviolet light for at least an hour or treatment with ethanol for approximately 30 seconds was used to sterilize the dishes. Type VII collagen, to promote cell adhesion to the glass coverslip, was added to each dish for coating and allowed to air dry in the laminar flow hood to maintain sterility. Once the dishes were dry, the lids were placed back on the dishes and the edges of the Petri dishes were then wrapped in Parafilm and stored in a 4° C. refrigerator before use.
Focusing on the FM® dye, the dye was thawed at room temperature and vortexed. A 30 μM FM® dye solution was made with 1×HBSS. The solution was heated to 37° C. and vortexed just before each cell staining experiment. The cells were exposed to the FM® dye solution for 5-10 min before imaging.
The media was removed from the 35 mm tissue culture dish using a micropipette. The surface was then rinsed once with 1 ml HBSS. […]
DRG neurons stained with FM® 4-64 were imaged before exposure to 100 μM ionomycin. […] Over the 10 min of imaging, the samples were moving out of focus and the focus was readjusted intermittently for more consistent images. […]

[2] = system: dorsal root ganglia (DRG) neurons
Protocol: The eggs were incubated for 10 days before dissection in a dark egg incubator with motion at a dry temperature of 86-100° F. and wet temperature of 84-86° F. From the ventral side, the spines of the embryos were exposed, the kidneys were removed one at a time under higher dissecting power carefully so as not to remove the nerve chains situated just below the kidney along the ventral side of the spinal cord. The DRGs were each dissected from the area between the bottom of the ribs and the posterior end of the embryo, placed in a tissue culture dish containing F12 media. DRGs from 12 embryos were transferred with a fire-polished Louis Pasteur pipette to a sterile 15 ml tube. After the DRGs settled to the bottom of the tube, a pipette was used to carefully remove the F12 media, avoiding removal of any DRGs. Ten mLs of 5% trypsin were added to the tube with DRGs, mixed, and incubated for 30 minutes in a 37° C. water bath. Every 10 minutes of incubation the tube was removed from the water bath and tapped to mix the DRGs and allow the trypsin to digest connective tissue to separate the neurons. After incubation, trypsin was removed using a pipette. The cells were rinsed with 2 ml of Neurobasal media 2-3 times by adding media, allowing the DRGs to settle to the bottom of the tube before removing the media, and adding another 2 ml of media. After the final rinse, the volume was brought up to 1 ml and the dissociated neurons were triturated with a medium-sized, then a small-sized, fire-polished Louis Pasteur pipette until the cell solution appeared cloudy and no individual DRGs were present in the media. A small amount of the solution was transferred to a hemocytometer and the single cells were counted. The cell solution was diluted so that 10-15×10^4 cells were added to an Alconox® treated, 0.1 mg/ml collagen coated, 25 mm diameter round glass coverslip in a 35 mm dish with 2 ml of Neurobasal media. The DRGs were incubated in 5% CO2 at 37° C. for 2-3 days before experimentation. Approximately 1 mL of media was replaced with new media every other day until experiments began.
Experiments began 2-3 days after neurons were plated. A dish of neurons was washed with 1×HBSS then 1×HBSS+1 mg/ml bovine serum albumin (BSA) before the cells were bathed in 4 μM Fura-2AM in 1×HBSS+BSA for incubation for 45 min at 37° C. in 5% CO2. The cells were washed 4× with 1×HBSS and incubated for another 20-60 min in 1×HBSS. A coverslip containing the neurons was removed after the final wash and placed in an apparatus for calcium imaging.
All toxins including nicotine, boric acid, ionomycin, glutamate, and glycine were prepared in 1×HBSS according to their final concentrations (Table 3).
The coverslip containing the neurons was placed in a perfusion apparatus onto an Olympus IX70 microscope equipped with a 20× fluorescence objective, a Mercury lamp and filter sets that optimized the Fura-2 excitation ([…]) and emission wavelengths (510 nm). The cells were bathed continuously by perfusion of solutions at ˜4.7 mL/min. The cells were bathed with 1×HBSS during software setup and for resting Ca^2+ measurements before exposure to stimulating or toxic solutions. InCyt Im2™ software was used to measure the emission intensities and convert to Ca^2+ concentrations. Only designated areas of each neuron soma were chosen for measurements. Calibration curves were generated for conversion of light intensity emitted per excitation wavelength using standard Ca^2+ solutions in the free acid form of Fura-2 to convert emitted light intensity to Ca^2+ concentration. Each experiment began with 3 min wash with HBSS to establish resting intracellular Ca^2+ measurements. Depending on the toxin used, the neurons were then exposed to a flow of toxic/stimulating solution for 5-10 min. Each experiment ended with a 1 min. wash of HBSS to determine reversal or change of the stimulating/toxic solution. […]

[3] = system: DRG neurons; remark: listed apart in the source
[4] = system: DRG neurons; test: Fluorescence spectroscopy of FM 4-64 labeled DRG neurons
Protocol: For spectroscopy experiments, DRG neurons were grown on 11×22 mm plastic coverslips that were treated with Alconox and coated with Type VII rat tail collagen, using the same methods that were mentioned previously. Cells were plated with ˜15×10^4 cells in each 35 mm tissue culture dish containing one plastic coverslip. The cells were incubated in 5% CO2 at 37° C. for 2 days before experiments began.
Before scanning the cell samples, the coverslip was mounted into a coverglass holder and was held inside a cuvette at a 45° angle from the light source and the photo detector. The coverglass holder was placed in a cuvette containing 1×HBSS to rinse the media from the cells prior to the experiments. For the spectroscopy experiments, the coverglass holder was placed in the cuvette that was filled with either 1×HBSS or stimulating solutions. The orientation of the coverglass in the cuvette was situated so that the cell surface was facing the light source and photodetector, both at 45° angles. For experiments using FM® 4-64, scan were conducted using a HORIBA Jobin Yvon FluoroLog®-3 spectrofluorometer with an excitation wavelength of 558 nm and an emission range was detected from 566 to 750 nm. The slit width for excitation and emission was 3 nm and data was collected every 0.2 sec, once for each wavelength. Fluorescence intensity was detected in counts per second (cps). The data was transferred into MS Excel and analyzed using Matlab.
In Matlab, the maximum intensity of each scan was found for the emission wavelength range of interest and the ratio of the maximum emission intensities was taken between non-labeled, non-stimulated cells and FM®-labeled cells before and after stimulation. This ratio was used to determine the difference in fluorescence, and therefore the amount of stained membranes present in the sample before and after stimulation with ionomycin.
To determine whether a change in fluorescence of FM®-labeled neurons could be measured, the cells were stained and stimulated using the same methods mentioned above. Four emission scans were performed: a control scan of the non-labeled neurons in HBSS, a scan of the FM®-labeled neurons in HBSS, a scan of the FM® labeled neurons in ionomycin 5 min after initial stimulation, and a scan of the post stimulated, FM®-labeled neurons in 1×HBSS wash. The cells were rinsed with warm 1×HBSS before each scan, and the cells were stimulated for a total of 10 min before rinsed with 1×HBSS for the fourth scan. The ratio of fluorescence intensities of non-labeled neurons to FM®-labeled neurons, FM®-labeled ionomycin-stimulated neurons, and FM®-labeled ionomycin-stimulated rinsed neurons in Table 5.

[5] = 10 min, 50 mM boric acid, 500 μM glutamate or 100 μM nicotine
[6] = FM-labeled neurons after 10 min ionomycin stimulation, rinsed in 1×HBSS
[7] = FM-labeled neurons, 5 min in ionomycin

With `CCN(CC)c1ccc(/C=C/C=C/C=C/c2cc[n+](CCC[N+](CC)(CC)CC)cc2)cc1.[Br-].[Br-]` [FM® 4-64] the “staining of DRG neuron membranes” value ([1]; 30 μM FM 4-64 in 1×HBSS) was “complete staining of the cell membranes around the soma and axons”.
In the case of `[Cl-].[K+]` [KCl, potassium chloride], the “mean intracellular Ca2+ concentration during stimulation” value ([2]; 50 mM KCl, n=104) was 511 nM, the “migration of FM 4-64 dye in stained neurons” value (“migration of FM 4-64 dye” below) ([3]; 50 mM KCl, 10 min after addition) was “some migration of FM® dye throughout the DRG neurons” and the “cell morphology in phase images during stimulation” value ([3]; 50 mM KCl, 10 min of stimulation) was “some swelling in small parts of axons”.
With `OB(O)O` [boric acid] the “change of intracellular Ca2+ compared to resting” value (from here on “change of intracellular Ca2+”) [2] was “slight, but significant, decrease”, the “mean intracellular Ca2+ concentration during stimulation” value [2] was 58 nM and the “axon morphology after stimulation” value [3] was “swollen axons”. For the same compound, the “differences in membrane structure before vs after treatment” value [3] was “very little differences to no differences” and the “migration of FM 4-64 dye” value [3] was “no migration of FM® 4-64 throughout the cells”.
`N[C@@H](CCC(=O)O)C(=O)O` [glutamate] was tested, and the “percent of cells that responded with an increase of intracellular Ca2+” value (“percent … with an increase of intracellular Ca2+” for short) ([2]; 100 μM glutamate) was 21%, the “percent of cells without obvious increase of intracellular Ca2+ (non-responding)” value ([2]; 100 μM glutamate) was 79% and the “average intracellular Ca2+ concentration, responding cells” value ([2]; 100 μM glutamate, n=27, resting 68.7 nM) was 301 nM. The “average intracellular Ca2+ concentration, non-responding cells” value ([2]; 100 μM glutamate, n=100, resting 67 nM) was 71 nM, the “percent … with an increase of intracellular Ca2+” value ([2]; 500 μM glutamate) was 34% and the “percent of cells without obvious increase of intracellular Ca2+ (non-responding)” value ([2]; 500 μM glutamate) was 66%. The “average intracellular Ca2+ concentration, responding cells” value ([2]; 500 μM glutamate, n=75, resting 82) was 352 nM, the “average intracellular Ca2+ concentration, non-responding cells” value ([2]; 500 μM glutamate, n=146, resting 84 nM) was 88 nM and the “percent … with an increase of intracellular Ca2+” value ([2]; 1 mM glutamate) was 15%. The “percent of cells without obvious increase of intracellular Ca2+ (non-responding)” value ([2]; 1 mM glutamate) was 85%, the “average intracellular Ca2+ concentration, non-responding cells” value ([2]; 1 mM glutamate, n=38, resting 79 nM) was 87 nM and the “axon morphology after stimulation” value [3, 5] was “swollen axons”. The “migration of FM 4-64 dye” value [3, 5] was “no migration of FM® 4-64 throughout the cells”.
With `C[C@H](CCC(=O)O)C[C@H](C)C[C@H](C)C(=O)/C=C(\O)[C@H](C)C[C@H](C)C/C=C/[C@@H](C)[C@@H](O)[C@@H](C)[C@@H](O)C[C@@H]1CC[C@@](C)([C@H]2CC[C@@](C)([C@@H](C)O)O2)O1` [ionomycin] the “mean intracellular Ca2+ concentration during stimulation” value ([2]; ~100 μM ionomycin, highest time points averaged, n=228) was 988 nM, the “change of intracellular Ca2+” value ([2]; ~100 μM ionomycin, positive control) was “large and irreversible” and the “cell morphology in phase images during stimulation” value ([1]; 100 μM ionomycin, up to 10 min) was “shrinkage of the cell soma”. The “migration of FM 4-64 dye” value ([1]; 100 μM ionomycin, within the first 25 sec of stimulation) was “migrated from the membranes of the axons into the soma”, the “Fluorescence Intensity at 667 nm” value [4, 6] was 2238 cps and the “Fluorescence Intensity at Peak Emission Wavelength” value [4, 6] was 2362 cps. For the same compound, the “Peak Emission Wavelength” value [4, 6] was 676 nm, the “Fluorescence Intensity at 667 nm” value [4, 7] was 3303 cps and the “Fluorescence Intensity at Peak Emission Wavelength” value [4, 7] was 3719 cps. For the same compound, the “Peak Emission Wavelength” value [4, 7] was 684 nm, the “Ratio of Fluorescence Intensities at 667 nm” value ([4]; FM-labeled neurons, 5 min in ionomycin vs non-labeled neurons) was 2.05 and the “Ratio of Fluorescence Intensities at 667 nm” value ([4]; after 10 min ionomycin stimulation, rinsed in 1×HBSS vs non-labeled neurons) was 1.39.
With `CN1CCCC1c1cccnc1` (stereo not shown) [nicotine] the “change of intracellular Ca2+” value [2] was “only a few cells experiencing an increase in intracellular Ca^2+”, the “axon morphology after stimulation” value [3] was “swollen axons” and the “migration of FM 4-64 dye” value [3] was “no migration of FM® 4-64 throughout the cells”.
